Test results reported in patent US7332495B2 (priority 2002, dated 2008).
Marks after values point to notes of the source that are not given here.

Tests used:
[1] = tested on: rat; assay: Rat 5% formalin paw s.c.; format: in vivo; conditions: p.o., read-out: Analgesia ED50
Procedure: (§1) Two species of animals (mice and rats) and four types of pain testing models (i.p. 0.7% acetic acid, s.c. 5% formalin, hot plate 55° C., focused radiant heat) were used.

[2] = tested on: rat; assay: animal or person; conditions: Rattus norvegicus, po, read-out: Analgesia ED50
Procedure: Using 55° C. hot plate pain threshold detector (available from Ninghai Baishi Electronic Medical Instrument Co., Zheijiang, China) the threshold change before and after administration of a pharmaceutical composition of the present invention is tested. […] hind paw was scrubbed with alcohol cotton ball before the experiment. The regular pain threshold was tested twice for each rat, the induced hind paw licking time being recorded as the pain threshold. Measurements were made at 20-30 minute intervals. Only rats with stable pain reaction were used in the pharmaceutical test.
as §1

[3] = tested on: Kunming mice; assay: Mice writhing model (acetic acid); format: in vivo; conditions: Mus musculus, po; Mice; Acetic acid Writhing; read-out: Analgesia ED50
Procedure: Kunming mice were used, with a male-female ratio of 50-50%. The test compound is administered i.p. (20 mg/Kg body weight) to the test groups, and physiological saline is administered P.O. (20 ml/Kg body weight) to the control group. After 30 minutes, acetic acid (0.7%, […] i.p.) was injected and the number of writhes was observed during a 5-minute period after acetic acid administration. The inhibition ratio of the writhing threshold was calculated. The alternating current tube is used to record the spontaneous activities for measuring sedation.
as §1

[4] = tested on: rat; assay: Rat tail flick model (focused radiant heat); format: in vivo; conditions: po, read-out: Analgesia ED50
[5] = tested on: rats; assay: Precipitated withdrawal test in rats; format: in vivo; conditions: Morphine group
Procedure: 48 rats were divided into 4 groups (12 for each group, ? fifty-fifty). Morphines IV-12-1 (75 mg/Kg), IV-12-2 (100 mg/Kg) and saline, was administered respectively using progressive dose increase for 14 days and 3 times per day. On the 15th day, Narcan is injected (i.p. 4 mg/kg) to precipitate withdrawal. The withdrawal syndrome was observed and the rats wre weighed at 30, 60 and 120 minutes after the injection respectively.

[6] = tested on: Mice; assay: Jumping test in mice (Narcan precipitated); format: in vivo; conditions: Morphine group
Procedure: Sixty-four mice were divided into 4 groups (16 for each group, ? fifty-fifty) Morphine, IV-12-1 (75 mg/Kg) IV-12-2 (100 mg/Kg) and saline were administrated respectively 3 times per day for 7 days with progressive dose increase. On the 7th day, Narcan is injected (i.p. 2 mg/kg) to precipitate withdrawal. The number of times for the mice to jump was recorded and the incidence of the jump calculated.

[7] = tested on: rats; assay: Spontaneous withdrawal tests (body weight); format: in vivo; conditions: Morphine group
Procedure: 96 mice were divided into 4 groups (24 for each group, ? fifty-fifty), and Morphine, IV-12-1, IV-12-2, warm boiled water were administered respectively, using progressive dose increase for 7 days (i.g.) and 2 times per day. The weight of the rats after drug withdrawal was compared with the weight one day before drug withdrawal at a corresponding time (See Table 9 and 10).

[8] = tested on: Mice; assay: Mice 55° C. hot plate; format: in vivo; conditions: Mus musculus, po, read-out: Analgesia ED50
Procedure: as §1

[9] = tested on: rats; assay: Spontaneous withdrawal tests (body weight); format: in vivo; conditions: Morphine group; remark: listed apart in the source
[10] = tested on: rats; assay: Conditional position preference in rats; conditions: Morphine group, i.g.
From the text: A commercially available device for testing (Med Associates Inc.) was used. Measurements were automatically recorded by a computer.
The data are indicated by means of […], t-test was employed to compare the data in different groups. The rats were divided randomly into groups by weight, 12 for each group. They were positive control groups. […] The experiments were divided into stages of accommodation, training and test. Accommodation: Open the doors between black box and grey box and the door between white box and grey box. put the rats in from the grey box; let them run free in the training box for 15 minutes for 4 days. Training: The white box is with medicine while the black one is without it. The period training is 10 days, the first day with the medicine while the second day not; the third day with the medicine while the fourth day not, so on and so forth. When carrying out the training with medicine, 15 minutes after the rat is administrated (i.g.) with medicine, it is put into the white box for 30 minutes. When the training is without medicine, 15 minutes after the rat is administrated (i.g.) with saline, it is put into the black box for 30 minutes. Test: On the 11th day, the rat is put into the training box, with the door open. The time the rat stays in each box, and the number of time it enters during 15 minutes were determined, and the percentage of the time staying in the white box to the time together in white box and black box is calculated (Table 12).

Molecule `CC(=O)Oc1ccccc1C(=O)O` [Aspirin, reference compound] has an ED50 [1] of 2310 mg/kg, an ED50 [2] of 843 mg/kg and an ED50 [3] of 348 mg/kg. It also gave an ED50 [4] greater than 5000 mg/kg.
`CN1CC[C@]23c4c5ccc(O)c4O[C@H]2[C@@H](O)C=C[C@H]3[C@H]1C5` [Morphine, reference compound] was tested, and the “Percent of the lost weight (IV ± SD)” value ([5]; 30 min after Narcan) was −5.1 ± 0.7, the “Percent of the lost weight (IV ± SD)” value ([5]; 60 min after Narcan) was −5.9 ± 1.0 and the “Percent of the lost weight (IV ± SD)” value ([5]; 120 min after Narcan) was −7.0 ± 0.7. The “Abstinence syndrome (IV ± SD)” value ([5]; 14 days, Narcan i.p. 4 mg/kg) was 9.2 ± 2.8, the “Incidence for jump (%)” value [6] was 87.5* % and the “Times for jump (IV ± SD)” value ([6]; 3 times per day for 7 days, Narcan i.p. 2 mg/kg) was 68 ± 43. It also gave an ED50 [2] of 107 mg/kg, an ED50 [3] of 6.8 mg/kg and an ED50 [4] of 23.3 mg/kg. The “Increase (%) of weight” value ([7]; 114 h after withdrawal) was −4.7%, the “Weight” value ([7]; 144 h after withdrawal) was 282.0 ± 41 g and the “Weight after withdrawal compared with weight one day before withdrawal” value ([7]; ♀, 114 h after withdrawal) was 0.97 ± 0.03. For the same molecule, the “Weight after withdrawal compared with weight one day before withdrawal” value ([7]; ♂, 18 h after withdrawal) was 0.97 ± 0.04, the ED50 [8] was 7.7 mg/kg and the “Greatest decrease of weight after drug withdrawal” value [9] was 10%. The “Increase (%) of weight” value ([9]; 12 h after withdrawal) was −0.5%, the “Weight” value ([9]; 12 h after withdrawal) was 284.7 ± 40 g and the “Increase (%) of weight” value ([9]; 18 h after withdrawal) was −3.2%. For the same molecule, the “Weight” value ([9]; 18 h after withdrawal) was 276.9 ± 39 g, the “Increase (%) of weight” value ([9]; 24 h after withdrawal) was −6.4% and the “Weight” value ([9]; 24 h after withdrawal) was 267.9 ± 37 g. The “Increase (%) of weight” value ([9]; 36 h after withdrawal) was −8.2%, the “Weight” value ([9]; 36 h after withdrawal) was 262.7 ± 37 g and the “Increase (%) of weight” value ([9]; 42 h after withdrawal) was −9.7%. For the same molecule, the “Weight” value ([9]; 42 h after withdrawal) was 258.4 ± 35 g, the “Increase (%) of weight” value ([9]; 48 h after withdrawal) was −10.2% and the “Weight” value ([9]; 48 h after withdrawal) was 257.0 ± 33 g. The “Increase (%) of weight” value ([9]; 60 h after withdrawal) was −10.3%, the “Weight” value ([9]; 60 h after withdrawal) was 256.6 ± 31 g and the “Increase (%) of weight” value ([9]; 66 h after withdrawal) was −10.5%. For the same molecule, the “Weight” value ([9]; 66 h after withdrawal) was 256.0 ± 34 g, the “Increase (%) of weight” value ([9]; 72 h after withdrawal) was −9.0% and the “Weight” value ([9]; 72 h after withdrawal) was 260.4 ± 36 g. The “Increase (%) of weight” value ([9]; 84 h after withdrawal) was −6.1%, the “Weight” value ([9]; 84 h after withdrawal) was 268.7 ± 37 g and the “Increase (%) of weight” value ([9]; 90 h after withdrawal) was −7.5%. The “Weight” value ([9]; 90 h after withdrawal) was 264.7 ± 37 g, the “Increase (%) of weight” value ([9]; 96 h after withdrawal) was −6.0% and the “Weight” value ([9]; 96 h after withdrawal) was 269.0 ± 40 g. For the same molecule, the “Increase (%) of weight” value ([9]; 108 h after withdrawal) was −3.0%, the “Weight” value ([9]; 108 h after withdrawal) was 277.6 ± 38 g and the “Weight” value ([9]; 114 h after withdrawal) was 272.9 ± 38 g. For the same molecule, the “Increase (%) of weight” value ([9]; 120 h after withdrawal) was −3.8%, the “Weight” value ([9]; 120 h after withdrawal) was 275.4 ± 40 g and the “Increase (%) of weight” value ([9]; 132 h after withdrawal) was −0.5%. The “Weight” value ([9]; 132 h after withdrawal) was 284.6 ± 38 g, the “Increase (%) of weight” value ([9]; 138 h after withdrawal) was −2.4% and the “Weight” value ([9]; 138 h after withdrawal) was 279.3 ± 38 g. For the same molecule, the “Increase (%) of weight” value ([9]; 144 h after withdrawal) was −1.5%, the “Increase (%) of weight” value ([9]; 156 h after withdrawal) was 1.7% and the “Weight” value ([9]; 156 h after withdrawal) was 291.0 ± 40 g. For the same molecule, the “Increase (%) of weight” value ([9]; 162 h after withdrawal) was −0.6%, the “Weight” value ([9]; 162 h after withdrawal) was 284.2 ± 40 g and the “Increase (%) of weight” value ([9]; 168 h after withdrawal) was 0.1%. For the same molecule, the “Weight” value ([9]; 168 h after withdrawal) was 286.5 ± 42 g, the “Weight” value ([9]; before withdraw) was 286.2 ± 40 g and the “Weight after withdrawal compared with weight one day before withdrawal” value ([9]; ♀, 18 h after withdrawal) was 0.98 ± 0.03. The “Weight after withdrawal compared with weight one day before withdrawal” value ([9]; ♀, 42 h after withdrawal) was 0.92 ± 0.02, the “Weight after withdrawal compared with weight one day before withdrawal” value ([9]; ♀, 66 h after withdrawal) was 0.91 ± 0.02 and the “Weight after withdrawal compared with weight one day before withdrawal” value ([9]; ♀, 90 h after withdrawal) was 0.94 ± 0.02. For the same molecule, the “Weight after withdrawal compared with weight one day before withdrawal” value ([9]; ♀, 138 h after withdrawal) was 1.00 ± 0.03, the “Weight after withdrawal compared with weight one day before withdrawal” value ([9]; ♀, 162 h after withdrawal) was 1.01 ± 0.03 and the “Weight after withdrawal compared with weight one day before withdrawal” value ([9]; ♂, 42 h after withdrawal) was 0.91 ± 0.03. The “Weight after withdrawal compared with weight one day before withdrawal” value ([9]; ♂, 66 h after withdrawal) was 0.90 ± 0.03, the “Weight after withdrawal compared with weight one day before withdrawal” value ([9]; ♂, 90 h after withdrawal) was 0.94 ± 0.03 and the “Weight after withdrawal compared with weight one day before withdrawal” value ([9]; ♂, 114 h after withdrawal) was 0.97 ± 0.03. The “Weight after withdrawal compared with weight one day before withdrawal” value ([9]; ♂, 138 h after withdrawal) was 0.99 ± 0.04, the “Weight after withdrawal compared with weight one day before withdrawal” value ([9]; ♂, 162 h after withdrawal) was 1.01 ± 0.04 and the “Percent in the medicine box (%)” value [10] was 62.0 ± 8.0 %.
